Key:
[1] = target: T1, Sodium-dependent serotonin transporter (Homo sapiens, UniProt P31645); assay: Inhibitory activity against human SERT transfected in HEK293 cells; assay type: cell-based
[2] = target: T1, Sodium-dependent serotonin transporter; assay: Inhibitory activity of compound bound to streptavidin-conjugated quantum dots against human SERT transfected in HEK293 cells; assay type: cell-based

T1 sequence (P31645 whole entry): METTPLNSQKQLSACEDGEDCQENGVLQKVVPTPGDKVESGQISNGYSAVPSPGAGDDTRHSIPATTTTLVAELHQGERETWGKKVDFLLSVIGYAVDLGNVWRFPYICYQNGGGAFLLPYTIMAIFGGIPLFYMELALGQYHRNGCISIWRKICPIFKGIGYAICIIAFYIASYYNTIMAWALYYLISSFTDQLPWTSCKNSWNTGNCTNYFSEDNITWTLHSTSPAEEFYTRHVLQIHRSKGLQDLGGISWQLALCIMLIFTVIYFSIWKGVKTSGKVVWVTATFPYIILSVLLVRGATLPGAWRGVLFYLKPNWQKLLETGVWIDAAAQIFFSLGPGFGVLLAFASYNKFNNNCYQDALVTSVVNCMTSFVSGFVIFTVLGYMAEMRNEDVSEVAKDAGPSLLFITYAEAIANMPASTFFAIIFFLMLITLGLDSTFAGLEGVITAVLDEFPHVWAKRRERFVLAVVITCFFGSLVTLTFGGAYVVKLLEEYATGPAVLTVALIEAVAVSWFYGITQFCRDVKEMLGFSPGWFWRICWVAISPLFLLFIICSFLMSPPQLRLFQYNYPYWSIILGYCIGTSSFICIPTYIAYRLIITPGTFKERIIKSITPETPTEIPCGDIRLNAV

Row | SMILES | IC50 [1] | IC50 [2]
1 | O=C(CCCCC1SCC2NC(=O)NC21)NCCN1CC=C(c2c[nH]c3ccccc23)CC1 (centres undefined) | 0.002 µM | 0.03 µM
2 | NCCc1c[nH]c2ccc(OCCOCCOCCS)cc12 | 115 µM | 99 µM

From ChEMBL document CHEMBL1141947, “Inhibitors of the serotonin transporter protein (SERT): the design and synthesis of biotinylated derivatives of 3-(1,2,3,6-tetrahydro-pyridin-4-yl)-1H-indoles. High-affinity serotonergic ligands for conjugation with quantum dots” (Bioorg Med Chem Lett, 2005)
